The values that follow are results of earlier work, collected in patent US6737430B2, “Mutual prodrug of amlodipine and atorvastatin” (Pfizer, Inc., priority 2000, dated 2004).

Data set [1] relates to smooth muscle cell migration. To be noted: cited from earlier work.
A further data set relates to calcium channel. Conditions: cited from earlier work.

On to `CCOC(=O)C1=C(COCCN)NC(C)=C(C(=O)OC)[C@H]1c1ccccc1Cl` (single isomer, unassigned) [(R) enantiomer, R(−)-amlodipine], for which the “inhibition of smooth muscle cell migration” value in data set [1] is reported as “potent inhibitor of smooth muscle cell migration”. Further, the “calcium channel blocking activity” value in the data set with calcium channel is recorded as “little or no calcium channel blocking activity”.
